Measured values published in patent US5908832A, “Peptide analog” (University of Houston - Clearlake, priority 1991, dated 1999).

How the values were obtained:
[1] = system: analgesic effects of morphine; details: in vivo; cited from earlier work
morphine-dependent rats [2] = assay: Naloxone-precipitated abstinence in morphine-dependent rats; format: in vivo, Sprague-Dawley rats
Description: Each rat was stereotaxically cannulated in the third ventricle under equithesin anesthesia. Cannula placements were subsequently confirmed by injection of methylene blue dye.
Drugs for third ventricle injection were dissolved in isotonic saline.
Following the rats way infusion period, rats were randomly divided into two treatment groups of seven rats each. Each rat received a third ventricular injection of either 600 ng daY8Ra in 30 μl saline or saline alone. Twenty-eight minutes after conclusion of the above injections, all rats were challenged by 10 μg naloxone HCl in 30 μl saline i.c.v.
Each rat was subsequently observed for 20 minutes, commencing with the onset of naloxone challenge.

specific NPFF receptors = details: spinal cord membranes; cited from earlier work
opiate-naive rats = details: 15 μg i.c.v.; cited from earlier work
morphine-dependent rats [3] = details: 2 μg i.c.v.; cited from earlier work

For `CC(C)C[C@H](NC(=O)[C@@H](N)Cc1ccccc1)C(=O)N[C@@H](Cc1ccccc1)C(=O)N[C@@H](CCC(N)=O)C(=O)N1CCC[C@H]1C(=O)N[C@@H](CCC(N)=O)C(=O)N[C@@H](CCCNC(=N)N)C(=O)N[C@@H](Cc1ccccc1)C(N)=O` [NPFF, Phe-Leu-Phe-Gln-Pro-Gln-Arg-Phe-amide], the “effect on analgesic effects of morphine and certain endogenous opioid peptides” value [1] is given as “potently antagonizes”, the “abstinence syndrome after naloxone challenge vs saline pretreatment (one-way ANOVA)” value (morphine-dependent rats [2]; 600 ng i.c.v. pretreatment, 10 μg naloxone HCl i.c.v., Example III) is given as “no significant differences among groups” and the “abstinence signs following the peptide injection itself (total frequency, M±SEM)” value (morphine-dependent rats [2]; morphine-dependent rats, 600 ng i.c.v., observed 14 minutes from onset of injection, before naloxone) is given as 3.67±0.99. The “affinity of the 125I-Y8Fa binding site” value (specific NPFF receptors) was “high affinity”, the “induction of quasi-morphine-abstinence syndrome (QMAS)” value (opiate-naive rats) was “induces a quasi-morphine-abstinence syndrome” and the “precipitation of opiate abstinence syndrome” value (morphine-dependent rats [3]) was “precipitates opiate abstinence syndrome”.
